pEC50, pIC50: −log10 of the molar value. Values belong to the molecule of their own block, whether it stands above or below them.
Experiments:
[1] = tested on: HeLa; test: Hoechst 33342 nuclear staining; format: cell-based, human; settings: 48 h read-out
Procedure: (§1) This assay is performed in 96 well tissue culture plates. Appropriate number of cells (adherent cells: 3-5*10^3, suspension cells: 8-10*10^3) are being seeded out in 80 μl complete medium. Adherent cells are incubated for 24 h for proper spreading out before addition of test compounds while suspension cells are immediately treated with test compounds after seeding out. The test compounds are added in 20 μl complete medium containing max 5% DMSO. The final compound concentrations in the assays are in the range of 0.001 μM-10 μM. […] The assay plates are then further incubated for 30 minutes and subsequently analyzed with a standard inverted fluorescence microscope.
(§2) The readout allows the determination of the fraction of apoptotic nuclei as well as other morphological criteria specific for apoptosis as a function of the treatment. The scores A, B, C and D are explained at the end of the Table.

[2] = tested on: Jurkat; test: Hoechst 33342 nuclear staining; format: cell-based, human; settings: 48 h read-out
Procedure: as §1, §2

[3] = tested on: PBL; test: Hoechst 33342 nuclear staining; format: cell-based, human; settings: 48 h read-out
Procedure: as §1, §2

[4] = tested on: Jily; test: Hoechst 33342 nuclear staining; format: cell-based; settings: 48 h read-out
Procedure: as §1, §2

[5] = tested on: MRC5; test: Hoechst 33342 nuclear staining; format: cell-based; settings: MRC5, 48 h read-out
Procedure: as §1, §2

[6] = tested on: HT1080; test: MTS proliferation assay; format: cell-based, human; settings: HT1080, 72 h read-out
Procedure: (§3) The assay is performed in 96 well tissue culture plates. The cells (range: 1.5*10^3-10^4) are seeded out in 80 μl complete medium 24 h prior to compound treatment. The test compounds are added in 20 μl complete medium containing max 5% DMSO. The final compound concentrations in the assays are in the range of 0.001 μM-10 μM. The assay plates are incubated for 72 h at culture conditions. The MTS reagent is prepared according to the manufacturer's protocol (Promega G1111). 20 μl MTS reagent are added to each well, the assay plates are quickly spun and incubated for another 3 h at culture conditions. Subsequently, the plates are shortly shaked and absorption measured with a microplate-reader at 492 nm. The scores A, B, C and D are explained at the end of the Table.

[7] = tested on: HeLa; test: MTS proliferation assay; format: cell-based, human; settings: 72 h read-out
Procedure: as §3

[8] = tested on: Jurkat; test: MTS proliferation assay; format: cell-based, human; settings: 72 h read-out
Procedure: as §3

[9] = tested on: Jily; test: MTS proliferation assay; format: cell-based; settings: 72 h read-out
Procedure: as §3

[10] = tested on: MRC5; test: MTS proliferation assay; format: cell-based; settings: MRC5, 72 h read-out
Procedure: as §3

[11] = tested on: HeLa; test: PI staining for cell cycle distribution; format: cell-based, human; settings: 24 h read-out, read-out: PI staining for cell cycle distribution EC50 (G2M arrest), HeLa
Procedure: 1-2*10^5 cells are seeded into 24 well tissue culture plates and incubated for 24 h prior to compound addition. Compounds are added for 24 h in a final concentration of 3 μM or 10 μM. Adherent cells are harvested by trypsinization. The cell suspensions are fixed by adding 2 parts ice cold ethanol 100% while vortexing. Then the samples are stored for >2 h at −20° C. Subsequently the cells are washed with PBS once and resuspended in 250 μl PBS containing 50 μg/ml PI (Calbiochem #537059), then the samples are incubated at 37° C. for 30 minutes and subsequently analyzed on a FACSCalibur™ monitoring linear PI fluorescence activity on FL2. The readout allows the detection of a possible direct or indirect influence of the tested compounds on the cell cycle. All active test compounds induce an arrest of the cell population in the G2M phase. This effect has been quantified by running the test at different concentrations. In Table 4 EC50 values are tabulated.

[12] = tested on: HeLa; test: Mitochondrial membrane potential (JC-1); format: cell-based, human; settings: 48 h read-out
Procedure: as §1, with “20 μal” for “20 μl”, “DMSO.” for “DMSO. The final compound concentrations in the assays are in the range of 0.001 μM-10 μM.”, “fluorescence microscope by using the FITC and TRITC filters.” for “fluorescence microscope.”
(§4) The scores A, B, C and D are explained at the end of the Table.

[13] = tested on: Jurkat; test: Mitochondrial membrane potential (JC-1); format: cell-based, human; settings: 48 h read-out
Procedure: as §1, with “20 μal” for “20 μl”, “DMSO.” for “DMSO. The final compound concentrations in the assays are in the range of 0.001 μM-10 μM.”, “fluorescence microscope by using the FITC and TRITC filters.” for “fluorescence microscope.”
as §4

[14] = tested on: MCF7; test: Mitochondrial membrane potential (JC-1); format: cell-based, human; settings: MCF7, 48 h read-out
Procedure: as §1, with “20 μal” for “20 μl”, “DMSO.” for “DMSO. The final compound concentrations in the assays are in the range of 0.001 μM-10 μM.”, “fluorescence microscope by using the FITC and TRITC filters.” for “fluorescence microscope.”
as §4

[15] = tested on: PBL; test: Mitochondrial membrane potential (JC-1); format: cell-based, human; settings: 48 h read-out
Procedure: as §1, with “20 μal” for “20 μl”, “DMSO.” for “DMSO. The final compound concentrations in the assays are in the range of 0.001 μM-10 μM.”, “fluorescence microscope by using the FITC and TRITC filters.” for “fluorescence microscope.”
as §4

[16] = tested on: DOHH2; test: Mitochondrial membrane potential (JC-1); format: cell-based; settings: DOHH2, 48 h read-out
Procedure: as §1, with “20 μal” for “20 μl”, “DMSO.” for “DMSO. The final compound concentrations in the assays are in the range of 0.001 μM-10 μM.”, “fluorescence microscope by using the FITC and TRITC filters.” for “fluorescence microscope.”
as §4

[17] = tested on: H460; test: Colony Forming Units; format: cell-based, human; settings: H460, read-out after 6 days
Procedure: (§5) Appropriate numbers of cells (100-150 cells, dependent on the cell type) are being seeded out in 1 ml complete medium into 6-well plates and allowed to attach for 48 h. The compounds are added after 48 h in 500 μl solution. The concentrations are in the range of 0.001 μM-3 μM. Control plates receive the same volume of medium containing the appropriate amount of DMSO. The plates are incubated for 6 days at cell culture conditions and subsequently scored for growth of colonies (containing more than 30 cells) by using a microscope.

[18] = tested on: HeLa; test: Colony Forming Units; format: cell-based, human; settings: read-out after 6 days
Procedure: as §5

pEC50 ([1]; Homo sapiens): 7.00 to 8.00
pEC50 ([2]; Homo sapiens): 7.00 to 8.00
pEC50 ([3]; Homo sapiens): < 6.00
pEC50 [4]: 7.00 to 8.00
pIC50 ([6]; Homo sapiens, HT-1080): 7.00 to 8.00
pIC50 ([7]; Homo sapiens): 7.00 to 8.00
pIC50 ([8]; Homo sapiens): > 8.00
pEC50 ([11]; Homo sapiens): 6.00 to 7.00
pEC50 ([12]; Homo sapiens): 7.00 to 8.00
pEC50 ([13]; Homo sapiens): 7.00 to 8.00
pEC50 ([14]; Homo sapiens): < 6.00
pEC50 ([15]; Homo sapiens): < 6.00
pEC50 ([16]; Homo sapiens, DOHH-2): 7.00 to 8.00
pIC50 ([17]; Homo sapiens, NCI-H460, 144 h): 6.00 to 7.00
pIC50 ([18]; Homo sapiens, 144 h): 6.00 to 7.00
melting point: 135 to 140 °C
Structure (SMILES): COc1ccc(Nc2cncc(-c3cccc(NC(=O)c4ccccc4)c3)c2)cc1 [Example 2, 3-(m-Benzoylaminophenyl)-5-(p-methoxyphenylamino)pyridine]
pEC50 ([5]; Homo sapiens): < 6.00
pIC50 [9]: > 8.00
pIC50 ([10]; Homo sapiens): 7.00 to 8.00

pEC50 [1]: 6.00 to 7.00
pEC50 [2]: 7.00 to 8.00
pEC50 [3]: < 6.00
pEC50 [4]: 7.00 to 8.00
pIC50 [6]: 7.00 to 8.00
pIC50 [7]: 6.00 to 7.00
pIC50 [8]: 7.00 to 8.00
pEC50 [11]: 6.00 to 7.00
pEC50 [12]: 6.00 to 7.00
pEC50 [13]: > 8.00
pEC50 [14]: < 6.00
pEC50 [15]: < 6.00
pEC50 [16]: > 8.00
pIC50 [17]: 7.00 to 8.00
pIC50 [18]: 7.00 to 8.00
Structure (SMILES): CCS(=O)(=O)Nc1cccc(-c2cncc(Nc3ccc(OC)cc3)c2)c1 [Example 4]
pEC50 [5]: 7.00 to 8.00
pIC50 [9]: 7.00 to 8.00
pIC50 [10]: 6.00 to 7.00

Reference: patent US8288421B2, “Phenylaminopyridines” (Basilea Pharmaceutica AG, priority 2004, dated 2012)
